Assay [1] concerns the target Recombinant Btk (Homo sapiens, UniProt Q06187). As to the kind of experiment: Kinase activity (BTK) inhibition assay, TR-FRET. The assay is classed as biochemical. Particulars: read-out: BTK kinase inhibitory activity grade (A/B/C). Here is the method: Kinase Activity (BTK) Inhibition Assay
The inhibitory effects of the compounds disclosed herein on BTK kinase activity were tested in an assay based on a time resolved fluorescence resonance energy transfer (TR-FRET) method. Recombinant Btk was pre-incubated with the compound disclosed herein in an assay buffer containing 50 mM. Tris pH 7.4, 10 mM MgCl2, 2 mM MnCl2, 0.1 mM EDTA, 1 mM DTT, 20 nM SEB, 0.1% BSA, 0.005% tween-20 at room temperature for 1 hour. The reaction was initiated by the addition of ATP (at the ATP Km concentration) and the peptide substrate (Biotin-[…]-NH2). After incubation for 1 hour at room temperature, an equal volume of stop solution containing 50 mM HEPES pH 7.0, 800 mM KF, 20 mM EDTA, 0.1% BSA, p-Tyr66 antibody linked with Eu cryptate and streptavidin-labeled XL665 was added to stop the reaction. The plate was incubated for an additional hour at room temperature and then the TR-FRET signal was read on a BMG PHERAstar FS instrument (ex337 nm, em 620 nm/665 nm). Based on the ratio of the signal of fluorescence at […] to 665 nm, the enzyme activity was calculated with an increased compound concentration. IC50 of each compound was obtained by fitting the data to the four-parameter equation of Graphpad Prism software.
In general terms: In TR-FRET formats the signal depends on donor and acceptor labels being close together.

The target in assay [2] is LCK (Homo sapiens, UniProt P06239). As to the kind of experiment: In vitro kinase selectivity assay, LCK (Z'-Lyte). The class given is biochemical. Particulars: read-out: LCK kinase inhibitory activity grade. Here is the method: (§1) The assay platform for EGFR and ITK kinase activities was established using time-resolved fluorescence resonance energy transfer-based method; the assay platform for LCK, SRC and LYN kinase activities was established using Z′-Lyte method; and the assay platform for TEC and JAK3 kinase activities was established using Lance Ultra method. The inhibitory effects of the compounds disclosed herein on different kinase activities were tested separately for each compound at 11 concentrations. The IC50 value of each compound was calculated using Graphpad Prism software.

The target of assay [3] is SRC (Homo sapiens, UniProt P12931). Briefly: In vitro kinase selectivity assay, SRC (Z'-Lyte). Particulars: read-out: SRC kinase inhibitory activity grade. The class given is biochemical. Here is the method: as §1
In assay [4] the target is LYN (Homo sapiens, UniProt P07948). As to the kind of experiment: In vitro kinase selectivity assay, LYN (Z'-Lyte). As to conditions: read-out: LYN kinase inhibitory activity grade. The class given is biochemical. Here is the method:
as §1

For assay [5], the target named is EGFR (Homo sapiens, UniProt P00533). Briefly: In vitro kinase selectivity assay, EGFR (TR-FRET). The class given is biochemical. As to conditions: read-out: EGFR kinase inhibitory activity grade. Here is the method: as §1
The target in assay [6] is T1, ITK (Homo sapiens, UniProt Q08881).
T1 sequence (Q08881 1-620): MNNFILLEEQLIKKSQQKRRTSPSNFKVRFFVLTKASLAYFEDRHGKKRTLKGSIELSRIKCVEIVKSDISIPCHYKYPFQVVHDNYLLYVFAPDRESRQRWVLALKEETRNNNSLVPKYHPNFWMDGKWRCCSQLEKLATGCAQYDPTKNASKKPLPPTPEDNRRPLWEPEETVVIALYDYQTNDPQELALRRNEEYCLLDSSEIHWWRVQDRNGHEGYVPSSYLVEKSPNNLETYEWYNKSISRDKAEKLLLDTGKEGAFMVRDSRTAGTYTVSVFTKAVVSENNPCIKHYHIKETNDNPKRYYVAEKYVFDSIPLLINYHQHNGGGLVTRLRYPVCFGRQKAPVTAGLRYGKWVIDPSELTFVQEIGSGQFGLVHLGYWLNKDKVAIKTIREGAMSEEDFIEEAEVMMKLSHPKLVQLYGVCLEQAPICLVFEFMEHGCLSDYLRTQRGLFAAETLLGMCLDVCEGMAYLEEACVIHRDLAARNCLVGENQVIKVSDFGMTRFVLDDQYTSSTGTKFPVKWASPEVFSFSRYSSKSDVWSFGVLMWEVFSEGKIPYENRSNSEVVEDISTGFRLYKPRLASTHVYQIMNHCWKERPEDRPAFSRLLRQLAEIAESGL
As to the kind of experiment: In vitro kinase selectivity assay, ITK (TR-FRET). The class given is biochemical. As to conditions: read-out: ITK kinase inhibitory activity grade. Here is the method: as §1

The target of assay [7] is T2, TEC (Homo sapiens, UniProt P42680).
T2 sequence (P42680 1-631): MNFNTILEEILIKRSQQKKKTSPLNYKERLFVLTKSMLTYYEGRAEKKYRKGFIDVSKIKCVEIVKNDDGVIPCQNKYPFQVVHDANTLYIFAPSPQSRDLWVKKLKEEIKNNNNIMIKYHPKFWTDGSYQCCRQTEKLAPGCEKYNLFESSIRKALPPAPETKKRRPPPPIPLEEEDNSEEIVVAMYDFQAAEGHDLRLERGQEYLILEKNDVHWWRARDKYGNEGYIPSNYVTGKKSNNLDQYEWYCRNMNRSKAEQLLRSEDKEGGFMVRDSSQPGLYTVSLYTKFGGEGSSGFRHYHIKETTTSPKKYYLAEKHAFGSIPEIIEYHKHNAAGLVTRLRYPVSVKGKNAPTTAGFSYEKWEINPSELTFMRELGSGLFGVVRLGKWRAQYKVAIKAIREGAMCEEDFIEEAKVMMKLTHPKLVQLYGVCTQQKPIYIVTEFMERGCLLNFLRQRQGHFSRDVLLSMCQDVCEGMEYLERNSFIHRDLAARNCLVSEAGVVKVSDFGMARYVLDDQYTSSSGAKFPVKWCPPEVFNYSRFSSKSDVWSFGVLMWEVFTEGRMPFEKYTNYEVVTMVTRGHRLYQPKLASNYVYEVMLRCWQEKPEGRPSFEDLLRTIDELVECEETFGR
As to the kind of experiment: In vitro kinase selectivity assay, TEC (Lance Ultra). The class given is biochemical. Particulars: read-out: TEC kinase inhibitory activity grade. Here is the method:
as §1

Assay [8] relates to diffuse large B-cell lymphoma cell line TMD-8. Briefly: Pharmacodynamic assay, TMD-8 xenograft in NOD.SCID mice. The assay is classed as in vivo. Particulars: p.o. daily for 21 days. Here is the method:
Severe immunodeficiency NOD.SCID mice were purchased from Beijing Vital River Laboratory Animal Technology Co., Ltd., and were housed in SPF grade animal room. After TMD-8 cells were cultured to the sufficient amount, the cells were collected by centrifugation and washed twice with PBS. Finally, the cells were resuspended in serum-free RPMI 1640 medium plus Matrigel (1:1 v/v). 0.2 ml of cell suspension was injected subcutaneously on the right flank of each mouse using 1 ml syringe and 25 G syringe needle. The tumor size was measured with a caliper after about one week post injection. The tumor volume was calculated according to the following formula: tumor volume=(length×width^2)/2. When the tumor volume reached about 100-200 mm^3, the mice were grouped and p.o. administered daily for 21 days.

Sequence of LYN (P07948 whole entry, species assumed): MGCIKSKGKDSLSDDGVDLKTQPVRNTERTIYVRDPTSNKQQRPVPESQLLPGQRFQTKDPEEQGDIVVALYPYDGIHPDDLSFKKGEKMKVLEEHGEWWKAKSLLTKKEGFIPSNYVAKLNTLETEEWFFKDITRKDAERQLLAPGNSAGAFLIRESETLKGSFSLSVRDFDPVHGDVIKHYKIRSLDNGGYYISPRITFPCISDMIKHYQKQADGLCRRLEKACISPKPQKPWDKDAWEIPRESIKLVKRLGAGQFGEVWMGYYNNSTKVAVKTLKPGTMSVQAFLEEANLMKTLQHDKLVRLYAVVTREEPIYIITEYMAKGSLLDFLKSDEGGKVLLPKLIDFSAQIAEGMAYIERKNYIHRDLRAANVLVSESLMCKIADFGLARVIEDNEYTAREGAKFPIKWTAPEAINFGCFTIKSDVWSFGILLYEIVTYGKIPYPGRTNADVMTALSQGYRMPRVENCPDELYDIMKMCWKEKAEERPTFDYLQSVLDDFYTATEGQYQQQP
Sequence of Recombinant Btk (Q06187 whole entry): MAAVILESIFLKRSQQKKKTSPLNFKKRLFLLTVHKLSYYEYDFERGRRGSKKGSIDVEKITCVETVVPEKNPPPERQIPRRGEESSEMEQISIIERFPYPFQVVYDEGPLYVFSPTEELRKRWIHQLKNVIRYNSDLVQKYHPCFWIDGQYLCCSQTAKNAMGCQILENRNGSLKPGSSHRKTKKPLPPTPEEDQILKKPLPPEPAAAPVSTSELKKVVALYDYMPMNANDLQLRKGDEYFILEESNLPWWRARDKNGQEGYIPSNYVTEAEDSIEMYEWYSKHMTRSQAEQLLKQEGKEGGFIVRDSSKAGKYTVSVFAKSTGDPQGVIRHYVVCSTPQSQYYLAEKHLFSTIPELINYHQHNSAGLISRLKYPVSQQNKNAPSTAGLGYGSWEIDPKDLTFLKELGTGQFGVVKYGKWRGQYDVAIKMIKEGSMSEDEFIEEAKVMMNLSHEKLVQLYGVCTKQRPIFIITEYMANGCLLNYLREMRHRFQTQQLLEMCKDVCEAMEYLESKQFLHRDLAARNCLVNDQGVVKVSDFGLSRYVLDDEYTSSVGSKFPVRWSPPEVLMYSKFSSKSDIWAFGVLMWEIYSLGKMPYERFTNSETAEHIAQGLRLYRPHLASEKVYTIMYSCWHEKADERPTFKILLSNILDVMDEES
Sequence of EGFR (P00533 25-1210): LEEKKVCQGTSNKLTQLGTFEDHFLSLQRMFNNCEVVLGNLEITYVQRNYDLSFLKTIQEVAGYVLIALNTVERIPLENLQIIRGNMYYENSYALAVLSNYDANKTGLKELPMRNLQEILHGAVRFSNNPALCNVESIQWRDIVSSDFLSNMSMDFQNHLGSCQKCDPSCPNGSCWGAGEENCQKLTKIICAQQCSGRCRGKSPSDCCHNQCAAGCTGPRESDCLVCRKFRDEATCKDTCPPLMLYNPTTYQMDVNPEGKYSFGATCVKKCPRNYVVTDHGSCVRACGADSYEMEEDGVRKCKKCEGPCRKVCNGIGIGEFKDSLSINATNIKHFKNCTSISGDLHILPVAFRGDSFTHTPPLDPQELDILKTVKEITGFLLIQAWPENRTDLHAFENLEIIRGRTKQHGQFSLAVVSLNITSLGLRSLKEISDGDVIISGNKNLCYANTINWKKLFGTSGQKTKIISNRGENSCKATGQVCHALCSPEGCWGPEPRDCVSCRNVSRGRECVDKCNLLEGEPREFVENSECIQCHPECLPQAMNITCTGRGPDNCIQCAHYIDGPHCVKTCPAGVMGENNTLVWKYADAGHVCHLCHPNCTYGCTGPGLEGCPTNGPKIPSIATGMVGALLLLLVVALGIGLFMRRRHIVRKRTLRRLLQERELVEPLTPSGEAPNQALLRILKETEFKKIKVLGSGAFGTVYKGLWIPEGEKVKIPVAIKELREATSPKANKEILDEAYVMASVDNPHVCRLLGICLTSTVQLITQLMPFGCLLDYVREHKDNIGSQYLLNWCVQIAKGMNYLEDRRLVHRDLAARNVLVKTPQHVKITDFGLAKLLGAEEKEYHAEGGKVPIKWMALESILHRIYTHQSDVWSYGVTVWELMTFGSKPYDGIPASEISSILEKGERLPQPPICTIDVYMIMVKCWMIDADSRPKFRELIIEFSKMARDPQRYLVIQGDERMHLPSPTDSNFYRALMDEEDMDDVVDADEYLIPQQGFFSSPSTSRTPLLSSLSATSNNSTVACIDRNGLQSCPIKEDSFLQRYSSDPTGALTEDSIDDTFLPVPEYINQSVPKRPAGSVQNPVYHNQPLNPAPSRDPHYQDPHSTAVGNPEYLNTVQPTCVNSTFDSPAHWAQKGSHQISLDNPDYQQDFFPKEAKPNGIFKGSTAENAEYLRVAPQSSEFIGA
Sequence of LCK (P06239 whole entry, species assumed): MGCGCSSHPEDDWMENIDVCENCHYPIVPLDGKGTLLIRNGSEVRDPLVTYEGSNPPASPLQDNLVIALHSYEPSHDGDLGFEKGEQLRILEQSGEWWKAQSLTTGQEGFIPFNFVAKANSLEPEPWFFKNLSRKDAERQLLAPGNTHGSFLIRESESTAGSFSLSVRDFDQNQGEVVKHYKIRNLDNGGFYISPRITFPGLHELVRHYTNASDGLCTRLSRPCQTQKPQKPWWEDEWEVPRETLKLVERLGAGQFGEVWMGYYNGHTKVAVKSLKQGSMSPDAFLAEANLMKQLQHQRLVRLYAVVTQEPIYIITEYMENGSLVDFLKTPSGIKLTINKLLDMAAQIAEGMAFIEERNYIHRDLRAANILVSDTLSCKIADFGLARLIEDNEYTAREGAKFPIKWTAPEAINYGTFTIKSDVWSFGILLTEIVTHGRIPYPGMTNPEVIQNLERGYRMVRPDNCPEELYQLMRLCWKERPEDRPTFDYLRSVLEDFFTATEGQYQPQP
Sequence of SRC (P12931 whole entry, species assumed): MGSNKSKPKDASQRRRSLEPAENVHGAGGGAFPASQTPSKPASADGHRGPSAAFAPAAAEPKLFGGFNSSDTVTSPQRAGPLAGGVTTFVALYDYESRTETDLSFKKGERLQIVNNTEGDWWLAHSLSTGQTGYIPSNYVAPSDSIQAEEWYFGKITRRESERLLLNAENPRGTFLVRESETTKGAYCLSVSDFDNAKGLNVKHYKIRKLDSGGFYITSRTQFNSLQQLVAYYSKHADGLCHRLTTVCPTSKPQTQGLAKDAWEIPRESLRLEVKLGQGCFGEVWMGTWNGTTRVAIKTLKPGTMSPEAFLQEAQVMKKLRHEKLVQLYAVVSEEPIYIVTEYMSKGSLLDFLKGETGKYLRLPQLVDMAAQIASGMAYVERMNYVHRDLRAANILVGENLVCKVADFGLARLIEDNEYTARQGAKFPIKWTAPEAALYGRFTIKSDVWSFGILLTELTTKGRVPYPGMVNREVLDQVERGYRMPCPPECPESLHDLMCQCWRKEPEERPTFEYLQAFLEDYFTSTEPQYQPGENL

For the molecule `CC#CC(=O)N1C[C@H](n2nc(-c3ccc(Oc4ccc(Cl)cn4)cc3)c(C(N)=O)c2N)CCC12CC2` [WS-416, (R)-5-amino-1-(4-(2-butynoyl)-4-azaspiro[2.5]oct-6-yl)-3-(4-((5-chloropyridin-2-yl)oxy)phenyl)-1H-pyrazole-4-carboxamide], the IC50 was under 100 nM in assay [1]; over 1000 nM in assay [2]; over 1000 nM in assay [3]; over 1000 nM in assay [4]; over 1000 nM in assay [5]; over 1000 nM in assay [6]. For the same molecule, in assay [7], the IC50 was under 100 nM. Besides, the “growth of TMD-8 tumor in vivo” value in assay [8] was “significantly inhibited the growth”.
With `N#CN1C[C@H](n2nc(-c3ccc(Oc4ccc(Cl)cn4)cc3)c(C(N)=O)c2N)CCC12CC2` [WS-413, (R)-5-amino-3-(4-((5-chloropyridin-2-yl)oxy)phenyl)-1-(4-cyano-4-azaspiro[2.5]oct-6-yl)-1H-pyrazole-4-carboxamide], the IC50 in assay [1] is under 100 nM; in assay [2] it was over 1000 nM; in assay [3] it was over 1000 nM; in assay [4], over 1000 nM; in assay [5] it was 100 to 1000 nM; in assay [6] it was over 1000 nM. Besides, the IC50 in assay [7] is under 100 nM. The “growth of TMD-8 tumor in vivo” value in assay [8] is “significantly inhibited the growth”.

These data come from patent US10882843B2, “5-aminopyrazole carboxamide derivative as BTK inhibitor and preparation method and pharmaceutical composition thereof” (SUZHOU SINOVENT PHARMACEUTICALS CO., LTD., priority 2016, dated 2021).
